# Legend:
# Type in all cases: functional
# A549 = experiment: Antiproliferative activity against human A549 cells assessed as cell growth inhibition incubated for 72 hrs by MTT assay
# HCT-116 = experiment: Antiproliferative activity against human HCT-116 cells assessed as cell growth inhibition incubated for 72 hrs by MTT assay
# PC-3 = experiment: Antiproliferative activity against human PC-3 cells assessed as cell growth inhibition incubated for 72 hrs by MTT assay
Structure (SMILES),GI50 (A549),GI50 (HCT-116),GI50 (PC-3)
CN(C)C1CCN(C(=O)c2ccc(N3N=C(c4ccccc4)/C(=N/Nc4cccnc4)C3=O)cc2)CC1,4.22 µM,3.88 µM,5.17 µM
CS(=O)(=O)N1CCN(C(=O)c2ccc(N3N=C(c4ccccc4)/C(=N/Nc4ccccc4)C3=O)cc2)CC1,> 50 µM,> 50 µM,> 50 µM
O=C(c1ccc(N2N=C(c3ccccc3)/C(=N/Nc3ccccc3)C2=O)cc1)N1CCCCC1,> 50 µM,> 50 µM,> 50 µM
CN1CCC(NC(=O)c2ccc(N3N=C(c4ccccc4)/C(=N/Nc4ccccc4)C3=O)cc2)CC1,4.44 µM,4.13 µM,6.45 µM
CN(C)C1CCN(C(=O)c2ccc(N3N=C(c4ccccc4)/C(=C/NCc4ccccc4)C3=O)cc2)CC1,> 20 µM,> 20 µM,> 20 µM
O=C(c1ccc(N2N=C(c3ccccc3)/C(=N\Nc3ccccc3)C2=O)cc1)N1CCC(N2CCCCC2)CC1,14.5 µM,8.75 µM,12.8 µM
O=C1CCN(C(=O)c2ccc(N3N=C(c4ccccc4)/C(=N/Nc4ccccc4)C3=O)cc2)CC1,> 50 µM,> 50 µM,> 50 µM
CN(C)C1CCN(C(=O)c2ccc(N3N=C(c4ccccc4)/C(=N/Nc4ccc(OCc5ccccc5)cc4)C3=O)cc2)CC1,5.03 µM,> 20 µM,> 20 µM
CN1CCN(C(=O)c2ccc(N3N=C(c4ccccc4)/C(=N/Nc4ccccc4)C3=O)cc2)CC1,22.9 µM,21.9 µM,> 50 µM
CC(C)(C)OC(=O)N1CCC2(CC1)CN(C(=O)c1ccc(N3N=C(c4ccccc4)/C(=N\Nc4ccccc4)C3=O)cc1)C2,25.5 µM,17.7 µM,19.9 µM
CN(C)C1CCN(C(=O)c2ccc(N3N=C(c4ccccc4)CC3=O)cc2)CC1,> 50 µM,> 50 µM,> 50 µM
CC1CCN(C(=O)c2cccc(N3N=C(c4ccccc4)/C(=N/Nc4ccccc4)C3=O)c2)CC1,2.72 µM,3.44 µM,2.41 µM
O=C(c1ccc(N2N=C(c3ccccc3)/C(=N/Nc3ccccc3)C2=O)cc1)N1CCN(C2COC2)CC1,> 50 µM,> 50 µM,> 50 µM
CN1CCC(NC(=O)c2cccc(N3N=C(c4ccccc4)/C(=N/Nc4ccccc4)C3=O)c2)CC1,9.06 µM,5.83 µM,15 µM
CN(C)C1CCN(C(=O)c2ccc(N3N=C(C4CC4)/C(=N/Nc4ccccc4)C3=O)cc2)CC1,2.15 µM,4.38 µM,7.14 µM
O=C(c1ccc(N2N=C(c3ccccc3)/C(=N/Nc3ccccc3)C2=O)cc1)N1CCC2(CC1)CNC2,4.69 µM,4.12 µM,5.6 µM
CN(C)CCCNC(=O)c1ccc(N2N=C(c3ccccc3)/C(=N/Nc3ccccc3)C2=O)cc1,3.32 µM,2.14 µM,3.76 µM
CN(C)C1CCN(C(=O)c2ccc(N3N=C(c4ccccc4)/C(=C/Nc4ccccc4)C3=O)cc2)CC1,> 20 µM,14.8 µM,> 20 µM
O=C(c1cscn1)N1CCC(C2=NN(c3nc(-c4ccccc4)cs3)C(=O)/C2=N\Nc2nccs2)CC1,> 50 µM,> 50 µM,> 50 µM
O=C(NCc1ccncc1)c1ccc(N2N=C(c3ccccc3)/C(=N/Nc3ccccc3)C2=O)cc1,11.5 µM,17.5 µM,12.6 µM
CN(C)C1CCN(C(=O)c2ccc(N3N=C(c4ccccc4)C(=C4CCN(C(=O)c5cc6cc(Cl)ccc6[nH]5)CC4)C3=O)cc2)CC1,43.6 µM,> 50 µM,> 50 µM
COc1cc(N/N=C2\C(=O)N(c3ccc(C(=O)N4CCC(N(C)C)CC4)cc3)N=C2c2ccccc2)cc(OC)c1OC,2.9 µM,5.51 µM,5.77 µM
O=C(c1ccc(N2N=C(c3ccccc3)/C(=N/Nc3ccccc3)C2=O)cc1)N1CCNCC1,> 50 µM,> 50 µM,> 50 µM
